Reference: patent US8569292B2, “Cyclic inhibitors of 11β-hydroxysteroid dehydrogenase 1” (Vitae Pharmaceuticals, Inc., priority 2008, dated 2013)
Where two headings read alike, the source gives them in different places.

Columns and labels:
[1] = Biological Test Example 5: fraction unbound in human plasma (equilibrium dialysis); type: in vitro ADME
Method: Plasma protein binding of compounds was determined with Equilibrium Dialysis of spiked plasma against compound free dextrane buffer using a dialysis membrane with mass cutoff of 5000 Da. Compound concentrations in plasma and buffer after incubation were measured using HPLC/Mass spectrometry.

[2] = target: CYP3A4 (Homo sapiens, UniProt P08684); test: Biological Test Example 6: CYP3A4 inhibition (erythromycin N-demethylation); type: in vitro ADME
[3] = target: T1, CYP2C9 (Homo sapiens, UniProt P11712); test: Biological Test Example 7: CYP2C9 inhibition (naproxen O-demethylation); type: in vitro ADME
T1 construct: purchased Invitrogen 2859; host or cells: insect cells infected with baculovirus (microsomes)

[4] = target: CYP2C19 (Homo sapiens, UniProt P33261); test: Biological Test Example 8: CYP2C19 inhibition (diazepam N-demethylation); type: in vitro ADME
[5] = target: T1, CYP2C9; test: Biological Test Example 9: CYP2C9 inhibition (Invitrogen kit, fluorogenic OOMR); type: in vitro ADME
[6] = target: T2, 11β-HSD1 (Homo sapiens, UniProt P28845); test: biochemical; conditions: for inhibition at 0.1 µM: read-out: Average % inhibition at 100 nM
[7] = target: T2, 11β-HSD1; test: Biological Test Example 4: microsomal 11β-HSD1 in the presence of 50% human plasma; conditions: for Shift: IC50 in Test Example 4 divided by IC50 in Test Example 1
[8] = target: T2, 11β-HSD1
[9] = Biological Test Example 1 IC50 (nM)
[10] = IC50 Range, Biological Test Example 1

Chain of CYP3A4 (P08684 whole entry): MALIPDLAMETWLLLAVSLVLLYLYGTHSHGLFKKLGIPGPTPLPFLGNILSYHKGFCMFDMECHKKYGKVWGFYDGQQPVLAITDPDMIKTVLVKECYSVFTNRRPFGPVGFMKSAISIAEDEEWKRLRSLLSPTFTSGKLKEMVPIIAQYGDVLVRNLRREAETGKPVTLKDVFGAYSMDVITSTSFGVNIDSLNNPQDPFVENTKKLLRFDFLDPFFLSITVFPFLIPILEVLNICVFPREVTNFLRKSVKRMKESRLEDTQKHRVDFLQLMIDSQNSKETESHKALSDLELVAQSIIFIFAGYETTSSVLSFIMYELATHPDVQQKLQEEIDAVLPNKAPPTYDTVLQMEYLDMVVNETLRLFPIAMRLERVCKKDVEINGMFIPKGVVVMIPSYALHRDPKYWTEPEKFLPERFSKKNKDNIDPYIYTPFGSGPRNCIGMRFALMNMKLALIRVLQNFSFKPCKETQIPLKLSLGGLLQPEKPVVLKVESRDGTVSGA
T2 sequence (P28845 whole entry): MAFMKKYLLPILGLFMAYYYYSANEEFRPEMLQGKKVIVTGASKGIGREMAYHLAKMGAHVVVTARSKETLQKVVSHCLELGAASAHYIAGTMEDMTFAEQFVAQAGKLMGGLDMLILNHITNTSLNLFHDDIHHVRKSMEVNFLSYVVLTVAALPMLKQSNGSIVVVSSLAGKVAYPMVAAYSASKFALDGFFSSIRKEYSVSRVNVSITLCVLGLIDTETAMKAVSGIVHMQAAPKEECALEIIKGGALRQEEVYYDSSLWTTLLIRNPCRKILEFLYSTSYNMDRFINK
T1 sequence (P11712 whole entry): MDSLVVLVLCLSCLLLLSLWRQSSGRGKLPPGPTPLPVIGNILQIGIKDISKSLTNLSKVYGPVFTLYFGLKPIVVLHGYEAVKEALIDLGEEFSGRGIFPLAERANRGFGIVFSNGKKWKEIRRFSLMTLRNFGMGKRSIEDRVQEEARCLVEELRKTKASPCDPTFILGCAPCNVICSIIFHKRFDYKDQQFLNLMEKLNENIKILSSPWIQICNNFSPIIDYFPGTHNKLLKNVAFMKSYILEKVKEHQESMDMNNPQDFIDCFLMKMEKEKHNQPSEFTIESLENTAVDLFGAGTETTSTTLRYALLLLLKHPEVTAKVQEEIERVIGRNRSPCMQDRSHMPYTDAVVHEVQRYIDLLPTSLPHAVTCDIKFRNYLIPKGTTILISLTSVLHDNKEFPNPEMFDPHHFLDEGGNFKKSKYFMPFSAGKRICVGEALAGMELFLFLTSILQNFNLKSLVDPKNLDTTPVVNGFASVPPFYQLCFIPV
Chain of CYP2C19 (P33261 whole entry): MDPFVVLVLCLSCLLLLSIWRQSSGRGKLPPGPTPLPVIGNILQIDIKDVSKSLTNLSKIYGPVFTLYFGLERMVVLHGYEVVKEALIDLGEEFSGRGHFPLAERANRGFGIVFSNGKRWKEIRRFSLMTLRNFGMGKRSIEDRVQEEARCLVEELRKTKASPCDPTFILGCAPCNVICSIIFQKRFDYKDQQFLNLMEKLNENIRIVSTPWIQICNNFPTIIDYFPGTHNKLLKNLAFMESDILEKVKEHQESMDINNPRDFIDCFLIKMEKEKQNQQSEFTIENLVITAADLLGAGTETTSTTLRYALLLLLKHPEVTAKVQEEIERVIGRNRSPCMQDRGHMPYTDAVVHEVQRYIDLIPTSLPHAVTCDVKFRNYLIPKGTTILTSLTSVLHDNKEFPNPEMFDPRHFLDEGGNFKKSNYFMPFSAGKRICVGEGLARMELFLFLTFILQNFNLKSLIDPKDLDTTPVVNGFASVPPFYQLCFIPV

SMILES	Biological Test Example 5 (%) [1] [%]	IC50 [2] [µM]	IC50 [3] [µM]	IC50 [4] [µM]	IC50 [5] [µM]	IC50 [6, 9] [nM]	IC50 [6, 10] [nM]	inhibition at 0.1 µM [6] [%]	IC50 [7] [nM]	Shift [7]	Average % inhibition at 100 nM ([8]; 100 nM) [%]	IC50 ([8]; read-out: Biological Test Example 1 IC50) [nM]	IC50 ([8]; read-out: IC50 Range, Biological Test Example 1) [nM]
Cc1ncc(-c2ccc([C@H](C)N3CC[C@](CC(C)(C)O)(c4ccccc4)OC3=O)cc2)cn1 [EXAMPLE 149, (S)-6-(2-hydroxy-2-methylpropyl)-3-((S)-1-(4-(2-methylpyrimidin-5-yl)phenyl)ethyl)-6-phenyl-1,3-oxazinan-2-one]	2.7	> 50	> 50	> 50	17.4								
COc1ccc(-c2ccc([C@H](C)N3CC[C@](CCC(N)=O)(c4ccccc4)OC3=O)cc2)cn1 [EXAMPLE 52, 3-((R)-3-((S)-1-(4-(6-methoxypyridin-3-yl)phenyl)ethyl)-2-oxo-6-phenyl-1,3-oxazinan-6-yl)propanamide]	1.8	> 50				1.1	< 100	94.5	10.5				
Cc1ccc(-c2ccc([C@H](C)N3CC[C@](CC(C)(C)O)(c4ccccc4)OC3=O)cc2)nn1 [EXAMPLE 134, (S)-6-(2-hydroxy-2-methylpropyl)-3-((S)-1-(4-(6-methylpyridazin-3-yl)phenyl)ethyl)-6-phenyl-1,3-oxazinan-2-one]	10.5	> 50	> 50	> 50	> 30								
Cc1cc(-c2ccc([C@H](C)N3CC[C@](CC(C)(C)O)(c4ccccc4)OC3=O)cc2)cc(C)n1 [EXAMPLE 139, (S)-3-((S)-1-(4-(2,6-dimethylpyridin-4-yl)phenyl)ethyl)-6-(2-hydroxy-2-methylpropyl)-6-phenyl-1,3-oxazinan-2-one]		> 50	21.4	18.2	9.9								
C[C@@H](c1ccc(-c2ccccn2)cc1)N1CC[C@](CCCNS(C)(=O)=O)(c2ccc(F)cc2)OC1=O [EXAMPLE 61, N-(3-((R)-6-(4-fluorophenyl)-2-oxo-3-((S)-1-(4-(pyridin-2-yl)phenyl)ethyl)-1,3-oxazinan-6-yl)propyl)methanesulfonamide]		29.2	23	40	9.9	0.7	< 100	96.2	13.6	18.2			
Cc1cc(-c2ccc([C@H](C)N3CCC(CCN4CCCS4(=O)=O)(c4ccccc4)OC3=O)cc2)ccn1 (stereo in doubt) [EXAMPLE 118, (R)-3-((S)-1-(4-(2-methylpyridin-4-yl)phenyl)ethyl)-6-phenyl-6-(2-(1,1-dioxoisothiazolidin-2-yl)ethyl)-1,3-oxazinan-2-one]											86.3	19.2	< 100

Next, values leading:

Biological Test Example 5 (%) [1] [%]	IC50 [2] [µM]	IC50 [3] [µM]	IC50 [4] [µM]	IC50 [5] [µM]	IC50 [6, 9] [nM]	IC50 [6, 10] [nM]	inhibition at 0.1 µM [6] [%]	IC50 [7] [nM]	Shift [7]	Average % inhibition at 100 nM ([8]; 100 nM) [%]	IC50 ([8]; read-out: Biological Test Example 1 IC50) [nM]	IC50 ([8]; read-out: IC50 Range, Biological Test Example 1) [nM]	SMILES
2	12.7	22.2	24.2										C[C@@H](c1ccc(-c2ccc(C#N)cn2)cc1)N1CC[C@](CC(C)(C)O)(c2ccccc2)OC1=O [EXAMPLE 138, 6-(4-((S)-1-((S)-6-(2-hydroxy-2-methylpropyl)-2-oxo-6-phenyl-1,3-oxazinan-3-yl)ethyl)phenyl)nicotinonitrile]
	8.9	11.2	19.5	9.7	1	< 100	98.8	10.8	11.1				Cc1cc(-c2ccc([C@H](C)N3CC[C@](CC(C)(C)O)(c4ccccc4)OC3=O)cc2)ccn1 [EXAMPLE 97, (S)-6-(2-hydroxy-2-methylpropyl)-3-((S)-1-(4-(2-methylpyridin-4-yl)phenyl)ethyl)-6-phenyl-1,3-oxazinan-2-one]
	11.6	8	11.4	8									COc1ccc(-c2ccc([C@H](C)N3CC[C@](CC(C)(C)O)(c4ccccc4)OC3=O)cc2)cn1 [EXAMPLE 93, (S)-6-(2-hydroxy-2-methylpropyl)-3-((S)-1-(4-(6-methoxypyridin-3-yl)phenyl)ethyl)-6-phenyl-1,3-oxazinan-2-one]
0.3	24.1	20.1	24.7	9.6									C[C@@H](c1ccc(-c2ccc(F)cn2)cc1)N1CC[C@](CC(C)(C)O)(c2ccccc2)OC1=O [EXAMPLE 136, (S)-3-((S)-1-(4-(5-fluoropyridin-2-yl)phenyl)ethyl)-6-(2-hydroxy-2-methylpropyl)-6-phenyl-1,3-oxazinan-2-one]
2	9.8	> 50	> 50	4.7	0.8	< 100	97.6	7.2					C[C@@H](c1ccc(-c2ccc(C#N)cn2)cc1)N1CC[C@](CC(C)(C)O)(c2ccc(F)cc2)OC1=O [EXAMPLE 111, 6-(4-((S)-1-((S)-6-(4-fluorophenyl)-6-(2-hydroxy-2-methylpropyl)-2-oxo-1,3-oxazinan-3-yl)ethyl)phenyl)nicotinonitrile]
	13	11.2	13.2	8.9	1	< 100	96	5.5	5.4				Cc1cc(-c2ccc([C@H](C)N3CC[C@](CCCNS(C)(=O)=O)(c4ccc(F)cc4)OC3=O)cc2)ccn1 [EXAMPLE 80, N-(3-((R)-6-(4-fluorophenyl)-3-((S)-1-(4-(2-methylpyridin-4-yl)phenyl)ethyl)-2-oxo-1,3-oxazinan-6-yl)propyl)methanesulfonamide]
	5.6	14	2.6	11.2	2.2	< 100	98.5	5.1					C[C@@H](c1ccc(-c2ccncn2)cc1)N1CC[C@](CC(C)(C)O)(c2ccccc2)OC1=O [EXAMPLE 131, (S)-6-(2-hydroxy-2-methylpropyl)-6-phenyl-3-((S)-1-(4-(pyrimidin-4-yl)phenyl)ethyl)-1,3-oxazinan-2-one]
1.9	11.8	> 50	3	9.7	2.5	< 100	97.9	21.6					C[C@@H](c1ccc(-c2cnccn2)cc1)N1CC[C@](CC(C)(C)O)(c2ccccc2)OC1=O [EXAMPLE 130, (S)-6-(2-hydroxy-2-methylpropyl)-6-phenyl-3-((S)-1-(4-(pyrazin-2-yl)phenyl)ethyl)-1,3-oxazinan-2-one]
	5	2.9	8.5	7.9	0.8	< 100	98.7	6.9	8.8				Cc1cc(-c2ccc([C@H](C)N3CC[C@](CC(C)(C)O)(c4ccc(F)cc4)OC3=O)cc2)ccn1 [EXAMPLE 76, (S)-6-(4-fluorophenyl)-6-(2-hydroxy-2-methylpropyl)-3-((S)-1-(4-(2-methylpyridin-4-yl)phenyl)ethyl)-1,3-oxazinan-2-one]
